Measured values taken from PMC6892409, “Phenotypic proteomic profiling identifies a landscape of targets for circadian clock–modulating compounds” (Life Science Alliance, 2019).
Like-named read-outs stand apart in the source and are kept apart here.

Legend:
[1] = test system: Per2-dLuc U2OS cells; assay: Circadian luminescence period assay, Per2-dLuc U2OS cells; format: cell-based, human; conditions: for Effect of kinase inhibitor on circadian period length: threefold serial dilution starting at 100 μM; for Circadian period length: 8 μM, mean ± SEM, control 24.2 ± […]
Experimental: Per2-dLuc U2OS osteosarcoma and Bmal1-dLuc U2OS osteosarcoma reporter cell lines were gifts from Dr Andrew Liu, University of Memphis, USA ([Liu et al, 2008]). […] The cells were cultured at 37°C, 5% CO2 in a standard humidified incubator.

[2] = test system: U2OS cells; assay: TMT quantitative proteomics of compound-treated U2OS cells; format: cell-based, human; conditions: 10 μM, 48 h, vs DMSO
[3] = test system: Synechococcus elongatus; assay: Luminescence rhythm period assay in cyanobacteria; conditions: 3, 8, 16 and 32 μM
Experimental: The D730nm was maintained between 0.27 and 0.45 by dilution with fresh medium.
Circadian period–altering compounds (dissolved in DMSO, final 0.5% DMSO) were then added in the air medium to reach the different desired concentrations. […] Images were generated from integrated photon counts over 25 min every 30 min using Metamorph software (Molecular Devices). […] Exported images were composed into image stacks and were quantified in a time series using a custom script in NIH ImageJ software, applying the “Multi Measure” plugin.

[4] = molecular target: T1, CDK2 (Homo sapiens, UniProt P24941); assay: Radiometric HotSpot kinase assay; format: biochemical; conditions: n = 3, remaining activity vs DMSO, read-out: Enzyme activity (%) CDK2
T1 construct: purchased Reaction Biology
Experimental: (§1) In brief, specific kinase/substrate pairs were mixed in a buffer containing 20 mM Hepes (pH 7.5), 10 mM MgCl2, 1 mM EGTA, 0.02% Brij35, 0.02 mg/ml BSA, 0.1 mM Na3VO4, 2 mM DTT, and 1% DMSO. […] After a 20-min incubation, ATP (cat. no. A7699; Sigma-Aldrich) and [γ-^33P] ATP (cat. no. NEG602H001MC; PerkinElmer) were added at a final total concentration of […].

[5] = molecular target: T2, CK1d (Homo sapiens, UniProt P48730); assay: Radiometric HotSpot kinase assay; format: biochemical; conditions: n = 3, remaining activity vs DMSO, read-out: Enzyme activity (%) CK1d
T2 construct: purchased Reaction Biology
Experimental: as §1

[6] = molecular target: T3, CK2a (Homo sapiens, UniProt P68400); assay: Radiometric HotSpot kinase assay; format: biochemical; conditions: read-out: Enzyme activity (%) CK2a
T3 construct: purchased Reaction Biology
T3 sequence (P68400 whole entry): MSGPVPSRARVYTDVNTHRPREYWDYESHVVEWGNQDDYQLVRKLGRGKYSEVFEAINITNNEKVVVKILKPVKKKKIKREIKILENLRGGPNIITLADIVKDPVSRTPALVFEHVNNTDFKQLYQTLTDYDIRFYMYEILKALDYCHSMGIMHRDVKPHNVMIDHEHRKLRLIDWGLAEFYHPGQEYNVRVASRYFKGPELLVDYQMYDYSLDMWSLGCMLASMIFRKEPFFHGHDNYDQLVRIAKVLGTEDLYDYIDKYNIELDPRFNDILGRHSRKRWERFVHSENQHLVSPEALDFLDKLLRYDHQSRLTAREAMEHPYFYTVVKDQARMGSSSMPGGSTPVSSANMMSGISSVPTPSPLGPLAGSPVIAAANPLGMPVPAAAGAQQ
Experimental: as §1

[7] = molecular target: T4, ERK1/MAPK3 (Homo sapiens, UniProt P27361); assay: Radiometric HotSpot kinase assay; format: biochemical; conditions: read-out: Enzyme activity (%) ERK1/MAPK3
T4 construct: purchased Reaction Biology
T4 sequence (P27361 whole entry): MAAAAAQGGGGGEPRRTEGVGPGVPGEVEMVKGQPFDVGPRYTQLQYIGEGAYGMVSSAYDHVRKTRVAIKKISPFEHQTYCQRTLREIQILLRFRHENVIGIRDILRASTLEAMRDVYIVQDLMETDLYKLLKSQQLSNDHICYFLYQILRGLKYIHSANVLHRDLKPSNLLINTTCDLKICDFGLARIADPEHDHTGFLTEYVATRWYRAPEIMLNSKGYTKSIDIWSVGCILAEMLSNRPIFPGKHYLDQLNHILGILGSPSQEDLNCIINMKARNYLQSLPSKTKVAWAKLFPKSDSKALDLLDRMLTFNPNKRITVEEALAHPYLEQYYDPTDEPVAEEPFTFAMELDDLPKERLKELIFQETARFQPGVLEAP
Experimental: as §1

[8] = molecular target: T5, ERK2/MAPK1 (Homo sapiens, UniProt P28482); assay: Radiometric HotSpot kinase assay; format: biochemical; conditions: read-out: Enzyme activity (%) ERK2/MAPK1
T5 construct: purchased Reaction Biology
T5 sequence (P28482 whole entry): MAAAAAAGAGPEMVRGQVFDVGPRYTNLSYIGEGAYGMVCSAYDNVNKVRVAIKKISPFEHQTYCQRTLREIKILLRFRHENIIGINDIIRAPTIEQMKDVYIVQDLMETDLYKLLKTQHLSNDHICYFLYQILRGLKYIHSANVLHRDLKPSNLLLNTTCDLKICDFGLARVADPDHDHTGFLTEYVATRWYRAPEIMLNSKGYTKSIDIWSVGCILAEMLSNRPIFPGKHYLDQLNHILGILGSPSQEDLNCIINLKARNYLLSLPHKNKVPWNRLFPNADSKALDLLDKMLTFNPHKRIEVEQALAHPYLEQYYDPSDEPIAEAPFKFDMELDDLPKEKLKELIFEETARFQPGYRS
Experimental: as §1

[9] = molecular target: T6, CAMK2d (Homo sapiens, UniProt Q13557); assay: Radiometric HotSpot kinase assay; format: biochemical; conditions: read-out: Enzyme activity (%) CAMK2d
T6 construct: purchased Reaction Biology
T6 sequence (Q13557 whole entry): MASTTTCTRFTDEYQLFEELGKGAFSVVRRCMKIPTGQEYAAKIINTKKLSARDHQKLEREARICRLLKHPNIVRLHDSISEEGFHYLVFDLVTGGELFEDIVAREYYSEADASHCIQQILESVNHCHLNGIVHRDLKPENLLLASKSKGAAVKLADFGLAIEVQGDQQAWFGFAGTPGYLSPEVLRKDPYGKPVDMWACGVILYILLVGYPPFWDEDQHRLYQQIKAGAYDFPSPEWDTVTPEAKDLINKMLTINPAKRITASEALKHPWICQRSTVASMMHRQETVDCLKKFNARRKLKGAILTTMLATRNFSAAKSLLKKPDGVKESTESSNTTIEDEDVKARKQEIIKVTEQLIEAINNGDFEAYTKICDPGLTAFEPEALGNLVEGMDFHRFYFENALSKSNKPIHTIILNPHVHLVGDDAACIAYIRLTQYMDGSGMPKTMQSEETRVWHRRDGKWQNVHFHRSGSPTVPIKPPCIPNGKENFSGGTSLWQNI
Experimental: as §1

[10] = molecular target: T7, CAMK1d (Homo sapiens, UniProt Q8IU85); assay: Radiometric HotSpot kinase assay; format: biochemical; conditions: read-out: Enzyme activity (%) CAMK1d
T7 construct: purchased Reaction Biology
T7 sequence (Q8IU85 whole entry): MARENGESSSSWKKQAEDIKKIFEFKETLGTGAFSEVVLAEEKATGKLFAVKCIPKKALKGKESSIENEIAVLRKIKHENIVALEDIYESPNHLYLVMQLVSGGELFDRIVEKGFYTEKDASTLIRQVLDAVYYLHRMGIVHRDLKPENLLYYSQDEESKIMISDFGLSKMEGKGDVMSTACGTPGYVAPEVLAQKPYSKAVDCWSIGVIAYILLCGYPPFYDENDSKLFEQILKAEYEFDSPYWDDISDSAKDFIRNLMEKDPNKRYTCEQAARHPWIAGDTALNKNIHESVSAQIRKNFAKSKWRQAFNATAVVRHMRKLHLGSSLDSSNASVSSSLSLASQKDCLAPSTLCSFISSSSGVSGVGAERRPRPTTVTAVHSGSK
Experimental: as §1

[11] = molecular target: T8, TNIK (Homo sapiens, UniProt Q9UKE5); assay: Radiometric HotSpot kinase assay; format: biochemical; conditions: for remaining activity at 100 µM: read-out: Enzyme activity (%) TNIK
T8 construct: purchased Reaction Biology
T8 sequence (Q9UKE5 whole entry): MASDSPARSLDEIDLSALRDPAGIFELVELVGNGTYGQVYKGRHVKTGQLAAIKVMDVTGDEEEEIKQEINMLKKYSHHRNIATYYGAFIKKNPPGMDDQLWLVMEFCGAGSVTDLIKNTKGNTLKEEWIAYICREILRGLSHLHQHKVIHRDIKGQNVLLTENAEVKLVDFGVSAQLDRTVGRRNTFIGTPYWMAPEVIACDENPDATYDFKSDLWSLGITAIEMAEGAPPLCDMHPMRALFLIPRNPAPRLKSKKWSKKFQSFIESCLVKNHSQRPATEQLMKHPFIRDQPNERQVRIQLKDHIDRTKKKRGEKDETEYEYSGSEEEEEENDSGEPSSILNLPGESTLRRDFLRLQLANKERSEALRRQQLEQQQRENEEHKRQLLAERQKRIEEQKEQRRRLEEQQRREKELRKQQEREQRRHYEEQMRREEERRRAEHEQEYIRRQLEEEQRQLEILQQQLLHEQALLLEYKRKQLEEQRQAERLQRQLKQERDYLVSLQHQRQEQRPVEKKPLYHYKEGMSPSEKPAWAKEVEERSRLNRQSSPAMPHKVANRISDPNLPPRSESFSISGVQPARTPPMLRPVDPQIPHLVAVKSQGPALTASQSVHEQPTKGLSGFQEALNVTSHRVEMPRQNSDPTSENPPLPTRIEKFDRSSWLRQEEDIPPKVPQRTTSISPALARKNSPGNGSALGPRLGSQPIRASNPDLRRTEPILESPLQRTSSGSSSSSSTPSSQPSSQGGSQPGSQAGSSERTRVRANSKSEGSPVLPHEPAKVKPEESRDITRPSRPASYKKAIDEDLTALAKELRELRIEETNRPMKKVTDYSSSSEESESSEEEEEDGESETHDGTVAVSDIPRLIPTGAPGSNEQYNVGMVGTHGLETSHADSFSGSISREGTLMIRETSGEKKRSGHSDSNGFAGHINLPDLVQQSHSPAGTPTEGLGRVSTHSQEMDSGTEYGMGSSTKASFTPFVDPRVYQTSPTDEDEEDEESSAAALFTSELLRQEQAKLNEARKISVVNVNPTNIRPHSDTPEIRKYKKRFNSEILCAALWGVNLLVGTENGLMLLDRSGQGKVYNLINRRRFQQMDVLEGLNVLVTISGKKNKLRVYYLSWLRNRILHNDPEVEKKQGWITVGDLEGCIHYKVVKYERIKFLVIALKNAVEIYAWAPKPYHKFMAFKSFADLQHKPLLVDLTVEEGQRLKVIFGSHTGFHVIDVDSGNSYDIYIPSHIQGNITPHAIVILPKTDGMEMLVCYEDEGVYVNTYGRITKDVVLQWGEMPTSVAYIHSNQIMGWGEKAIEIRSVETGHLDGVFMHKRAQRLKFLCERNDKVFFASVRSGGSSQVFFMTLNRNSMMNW
Experimental: as §1

[12] = molecular target: T9, CDK7 (Homo sapiens, UniProt P50613); assay: Radiometric HotSpot kinase assay; format: biochemical; conditions: read-out: Enzyme activity (%) CDK7
T9 construct: purchased Reaction Biology
T9 sequence (P50613 whole entry): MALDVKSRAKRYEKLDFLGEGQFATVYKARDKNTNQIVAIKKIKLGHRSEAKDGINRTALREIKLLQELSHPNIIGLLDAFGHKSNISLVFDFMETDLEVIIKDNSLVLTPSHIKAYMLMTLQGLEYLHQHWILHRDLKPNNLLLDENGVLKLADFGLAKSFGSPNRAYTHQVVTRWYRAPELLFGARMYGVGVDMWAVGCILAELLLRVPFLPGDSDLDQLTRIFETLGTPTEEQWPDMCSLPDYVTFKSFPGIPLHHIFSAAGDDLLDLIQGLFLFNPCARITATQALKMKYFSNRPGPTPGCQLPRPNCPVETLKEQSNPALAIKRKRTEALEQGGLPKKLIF
T9 sequence (P51946 whole entry partner): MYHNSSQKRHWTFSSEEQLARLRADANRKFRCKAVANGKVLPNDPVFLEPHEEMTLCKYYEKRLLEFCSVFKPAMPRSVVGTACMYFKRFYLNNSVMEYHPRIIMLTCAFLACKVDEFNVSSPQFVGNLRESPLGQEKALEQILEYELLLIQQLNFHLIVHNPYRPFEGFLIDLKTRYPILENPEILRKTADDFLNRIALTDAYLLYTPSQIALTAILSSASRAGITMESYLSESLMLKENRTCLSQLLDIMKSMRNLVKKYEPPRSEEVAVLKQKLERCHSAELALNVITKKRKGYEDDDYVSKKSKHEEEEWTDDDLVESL
T9 sequence (P51948 whole entry partner): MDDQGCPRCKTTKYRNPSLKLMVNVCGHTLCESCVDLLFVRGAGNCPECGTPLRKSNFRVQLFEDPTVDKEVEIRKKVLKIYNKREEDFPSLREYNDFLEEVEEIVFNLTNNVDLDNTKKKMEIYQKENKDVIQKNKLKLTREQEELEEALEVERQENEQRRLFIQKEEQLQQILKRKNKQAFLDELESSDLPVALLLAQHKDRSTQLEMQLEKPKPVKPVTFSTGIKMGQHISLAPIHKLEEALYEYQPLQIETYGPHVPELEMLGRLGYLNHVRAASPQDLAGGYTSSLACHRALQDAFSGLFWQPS
Experimental: as §1

[13] = molecular target: T10, MST4/STK26 (Homo sapiens, UniProt Q9P289); assay: Radiometric HotSpot kinase assay; format: biochemical; conditions: read-out: Enzyme activity (%) MST4/STK26
T10 construct: purchased Reaction Biology
T10 sequence (Q9P289 whole entry): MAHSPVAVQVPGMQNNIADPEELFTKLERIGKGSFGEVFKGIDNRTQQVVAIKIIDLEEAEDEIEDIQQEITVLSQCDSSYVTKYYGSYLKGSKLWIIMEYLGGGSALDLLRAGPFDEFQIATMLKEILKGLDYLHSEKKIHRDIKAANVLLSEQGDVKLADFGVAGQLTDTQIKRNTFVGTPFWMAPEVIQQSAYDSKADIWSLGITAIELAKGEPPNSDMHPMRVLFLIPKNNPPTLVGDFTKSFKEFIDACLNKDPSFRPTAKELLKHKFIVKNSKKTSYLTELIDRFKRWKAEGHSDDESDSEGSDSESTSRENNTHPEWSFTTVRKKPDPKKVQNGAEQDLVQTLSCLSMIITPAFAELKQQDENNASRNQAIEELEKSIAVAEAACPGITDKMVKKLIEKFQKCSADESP
Experimental: as §1

[14] = 100 μM, n = 3, remaining activity vs DMSO

SMILES: NC(=O)c1ccc(-c2nc(-c3ccc4c(c3)OCCO4)c(-c3ccccn3)[nH]2)cc1 [D4476]
- Effect of kinase inhibitor on circadian period length [1]: substantial dose-dependent increase in the period length

SMILES: Cc1cc2sc(NC(=O)Cc3ccccc3)nc2cc1Cl [LH846]
- Effect of kinase inhibitor on circadian period length [1]: substantial dose-dependent increase in the period length

SMILES: CC(C)n1cnc2c(NCc3cccc(C(F)(F)F)c3)ncnc21 [Longdaysin, longdaysin]
- Average Fold-change Acot9 Q9Y305 [2]: 0.86
- Average Fold-change Atp5f1e P56381 [2]: 0.88
- Average Fold-change Bak1 Q16611 [2]: 1.18
- Average Fold-change Cdk7 P50613 [2]: 0.85
- Average Fold-change Col1a1 P02452 [2]: 0.83
- Average Fold-change Csnk2a2 P19784 [2]: 0.81
- Average Fold-change Csnk1d P48730 [2]: 0.75
- Average Fold-change Ctsb P07858 [2]: 1.19
- Average Fold-change Cyb5b O43169 [2]: 1.15
- Average Fold-change Emsy Q7Z589 [2]: 0.86
- Average Fold-change Gusb P08236 [2]: 1.17
- Average Fold-change H1f0 P07305 [2]: 1.31
- Average Fold-change Hist1h4a P62805 [2]: 1.36
- Average Fold-change Hist2h3a Q71DI3 [2]: 1.28
- Average Fold-change Krt9 P35527 [2]: 0.78
- Average Fold-change Mapk1 P28482 [2]: 0.75
- Average Fold-change Mapk14 Q16539 [2]: 0.78
- Average Fold-change Nemf O60524 [2]: 0.80
- Average Fold-change Npc2 P61916 [2]: 1.20
- Average Fold-change Nucks1 Q9H1E3 [2]: 1.22
- Average Fold-change Ppig Q13427 [2]: 0.89
- Average Fold-change Rpl7a P62424 [2]: 0.85
- Average Fold-change Rpl14 P50914 [2]: 0.80
- Average Fold-change Rpl18 Q07020 [2]: 0.85
- Average Fold-change Rpl28 P46779 [2]: 0.86
- Average Fold-change Rpl37 P61927 [2]: 0.87
- Average Fold-change Rpl37a P61513 [2]: 0.88
- Average Fold-change Smarcd2 Q92925 [2]: 0.88
- Average Fold-change Spryd4 Q8WW59 [2]: 0.78
- Average Fold-change Tecr Q9NZ01 [2]: 0.46
- Average Fold-change Terf2 Q15554 [2]: 1.15
- Effect on period length in cyanobacteria [3]: do not affect period length
- Circadian period length [1]: 35.1 ± 1.29 h

SMILES: CC(C)[C@H](CO)Nc1nc(Nc2cccc(Cl)c2)c2ncn(C(C)C)c2n1 [Purvalanol A, purvalanol A]
- Average Fold-change Acsf2 Q96CM8 [2]: 1.16
- Average Fold-change Alcam Q13740 [2]: 1.20
- Average Fold-change Arhgap29 Q52LW3 [2]: 1.19
- Average Fold-change Cav1 Q03135 [2]: 1.17
- Average Fold-change Cavin1 Q6NZI2 [2]: 1.22
- Average Fold-change Cavin2 O95810 [2]: 1.29
- Average Fold-change Cd47 Q08722 [2]: 1.17
- Average Fold-change Cdk6 Q00534 [2]: 0.86
- Average Fold-change Cdk7 P50613 [2]: 0.74
- Average Fold-change Cdkn1a P38936 [2]: 1.52
- Average Fold-change Cdkn1b P46527 [2]: 1.37
- Average Fold-change Cers5 Q8N5B7 [2]: 1.14
- Average Fold-change Cks1b P61024 [2]: 0.85
- Average Fold-change Cks2 P33552 [2]: 0.83
- Average Fold-change Col1a1 P02452 [2]: 0.80
- Average Fold-change Ctsb P07858 [2]: 1.29
- Average Fold-change Dpysl4 O14531 [2]: 1.15
- Average Fold-change Fas P25445 [2]: 1.18
- Average Fold-change Gls O94925 [2]: 0.80
- Average Fold-change Gys1 P13807 [2]: 1.22
- Average Fold-change H1f0 P07305 [2]: 1.20
- Average Fold-change Hist1h4a P62805 [2]: 1.50
- Average Fold-change Hist2h3a Q71DI3 [2]: 1.29
- Average Fold-change Hmga1 P17096 [2]: 1.16
- Average Fold-change Hmgcs1 Q01581 [2]: 0.77
- Average Fold-change Hmgn2 P05204 [2]: 1.15
- Average Fold-change Irf2bpl Q9H1B7 [2]: 1.15
- Average Fold-change Itga2 P17301 [2]: 1.20
- Average Fold-change Itga3 P26006 [2]: 1.17
- Average Fold-change Naga P17050 [2]: 1.19
- Average Fold-change Nbn O60934 [2]: 0.83
- Average Fold-change Npc2 P61916 [2]: 1.33
- Average Fold-change Pak1 Q13153 [2]: 1.19
- Average Fold-change Ppp1cc P36873 [2]: 0.85
- Average Fold-change Psap P07602 [2]: 1.20
- Average Fold-change Rpl14 P50914 [2]: 0.75
- Average Fold-change S100a2 P29034 [2]: 1.30
- Average Fold-change Selenoh Q8IZQ5 [2]: 1.14
- Average Fold-change Slc5a3 P53794 [2]: 1.16
- Average Fold-change Slc20a1 Q8WUM9 [2]: 1.20
- Average Fold-change Tada3 O75528 [2]: 1.28
- Average Fold-change Uhrf1 Q96T88 [2]: 0.82
- remaining activity at 100 µM [4]: 0.7%
- remaining activity at 100 µM [5]: 21.7%
- remaining activity at 100 µM [6, 14]: 76.9%
- remaining activity at 100 µM [7, 14]: 83.6%
- remaining activity at 100 µM [8, 14]: 66.5%
- remaining activity at 100 µM [9, 14]: 53.2%
- remaining activity at 100 µM [10, 14]: 49.2%
- remaining activity at 100 µM [11, 14]: 2.3%
- IC50 ([11]; 10-dose, threefold serial dilution starting at 100 μM): < 500 nM
- remaining activity at 100 µM [12]: 3.8%
- remaining activity at 100 µM [13, 14]: 32.7%
- Effect on period length in cyanobacteria [3]: do not affect period length
- Circadian period length [1]: 25.2 ± 0.04 h

SMILES: CC[C@H](CO)Nc1nc(NCc2ccccc2)c2ncn(C(C)C)c2n1 [Roscovitine, roscovitine]
- remaining activity at 100 µM [6]: 89.4%
- remaining activity at 100 µM [7]: 59.1%
- remaining activity at 100 µM [8]: 50.6%
- remaining activity at 100 µM [9]: 38.9%
- remaining activity at 100 µM [10]: 56.7%
- remaining activity at 100 µM [11]: 7.8%
- remaining activity at 100 µM [12]: 4%
- remaining activity at 100 µM [13]: 40.1%
- Effect on period length in cyanobacteria [3]: do not affect period length
- Circadian period length [1]: 28.9 ± 0.08 h

SMILES: COc1ccc2c(c1)/C(=C/c1cnc[nH]1)C(=O)N2 [SU9516]
- Effect of kinase inhibitor on circadian period length [1]: substantial dose-dependent increase in the period length
